Measured values published in patent US12286437B2, “Cardiac sarcomere inhibitors” (Cytokinetics, Inc., priority 2021, dated 2025).

Columns and labels:
[1] = Monkey single dose pharmacokinetics; type: in vivo; conditions: male, plasma, cynomolgus monkey, IV; for Vd: read-out: Vss; for half-life: read-out: t½ (converted)
Description: (§1) Non-naïve Male Cynomolgus Monkey (2-5 years of age, body weight 2-5 kg) used in this study were obtained from Topgene Biotechnology. All animals for IV administration had free access to food and water; all animals for PO were fasted overnight prior to dosing and were fed approximately 6 hours after dosing. The IV dose solution was prepared in 10% DMA/[…] solution (40% w/v aqueous HPβCD) at a concentration of 1.0 mg/mL. The oral dose suspension was prepared by suspending the compound in 0.5% HPMC/0.1% Tween 80 in distilled water at a concentration of 0.2 mg/mL. Concentrations of IV and PO doses were measured at the end of the study. PK parameters were calculated using the nominal dose values if the measured values were within 20% of the nominal values. Blood samples were collected by venipuncture of peripheral veins except the dosing vein at pre-dose, 5 15, 30 min, 1, 2, 4, 6, 8, 24 and 48 h post-dose. Blood samples were centrifuged and resultant plasma was frozen for bioanalysis. Plasma samples were stored at −80° C. before analysis. Plasma samples were analyzed for compound concentrations using the LC/MS/MS method. Briefly, a 50 μL aliquot of each plasma sample was mixed with 100 μL of acetonitrile that contained an internal standard. The mixture was vortexed and centrifuged. Ten (10) μL of the resulting solution was injected onto a reverse-phase C18 column and the resultant peaks detected on a LC/MS/MS equipped with a turbo ionspray ionization source. Sample concentrations below the limit of quantification (BLQ) were treated as zero for PK calculations. PK parameters were estimated from individual animals using noncompartmental analysis of the concentration-time data (Phoenix WinNonLin software, version 64; Pharsight, Mountain View, CA). The elimination rate constant (k) was calculated as the absolute value of the slope of the linear regression of logarithm (log) of the concentration versus time for the last three data points of the concentration-time profiles. Apparent elimination half-life (t1/2) values were calculated as ln(2)/k. Area under the concentration-time curve (AUC) values were estimated using linear trapezoidal method. AUCt values were calculated from the dosing time to the last measurable concentration. AUC∞ values were calculated as the sum of the corresponding AUCt and the ratio of the last detectable concentration divided by k. Plasma clearance (CL) was calculated from Dose/AUC∞. Mean resident time extrapolated to infinity (MRT∞) was estimated by moment analysis. Vss was calculated from MRT∞×CL. Maximum concentration (Cmax) and time to reach Cmax (tmax) were recorded as observed. As this was a cross-over study, bioavailability was calculated dAUC∞,po/dAUC∞,iv×100% where dAUC was the dose normalized AUC value from the same animal given IV and PO dose. Data for compounds tested are provided in Table E. Compounds tested were prepared in accordance with the synthetic procedures described herein.

[2] = Dog single dose pharmacokinetics; type: in vivo, beagle dogs; conditions: male, beagle, plasma, IV; for Vd: read-out: Vss; for half-life: read-out: t½ (converted)
Description: as §1, with “male beagle dogs (8 months-3” for “Male Cynomolgus Monkey (2-5”, “8-13” for “2-5”, “kg) were” for “kg)”, “study.” for “study were obtained from Topgene Biotechnology.”, “dosing. For the animals in PO group, pentagastrin (6.0 μg/kg, i.m.) was administrated 20 minutes before dosing PO formulation and 1.5 hours after the first pentagastrin dosing. The dosing volume was 0.024 mL/kg, the concentration was 250 μg/mL in DMSO/1 N NaOH/PBS. 10 mL of 0.001 N HCl was used to wash the gavage catheter for each animal.” for “dosing.”, “D.” for “E.”

C[C@H]1CC[C@H](N2CC(=O)N(Cc3ccc(Cl)cc3)C3(CN(C(N)=O)C3)C2=O)CC1 [Compound 18, 5-(4-chlorobenzyl)-8-((1r,4r)-4-methylcyclohexyl)-6,9-dioxo-2,5,8-triazaspiro[3.5]nonane-2-carboxamide]
clearance [1]: 7.91 mL/min/kg | Vd [1]: 6.08 L/kg | half-life [1]: 10.9 h | clearance [2]: 18.8 mL/min/kg | Vd [2]: 5.73 L/kg | half-life [2]: 5.8 h

CC(C)N1CC(=O)N(Cc2ccc(C(F)(F)F)cc2)C2(CN(c3cccnn3)C2)C1=O [Compound 13, 8-isopropyl-2-(pyridazin-3-yl)-5-(4-(trifluoromethyl)benzyl)-2,5,8-triazaspiro[3.5]nonane-6,9-dione]
clearance [1]: 25.8 mL/min/kg | Vd [1]: 3.98 L/kg | half-life [1]: 2.05 h | clearance [2]: 7.45 mL/min/kg | Vd [2]: 2.85 L/kg | half-life [2]: 6.44 h

C[C@H]1CC[C@H](N2CC(=O)N(Cc3ccc(F)c(F)c3)C3(CN(C=O)C3)C2=O)CC1 [Compound 4, 5-(3,4-difluorobenzyl)-8-((1r,4r)-4-methylcyclohexyl)-6,9-dioxo-2,5,8-triazaspiro[3.5]nonane-2-carbaldehyde]
half-life [2]: 9.54 h
